#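 These data come from cells grown in 96-well plates and exposed to compound for 48 hours at five concentrations. TGI denotes the concentration required for complete inhibition of growth.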
# Assays:
# Assay in all cases: NCI anticancer screen, dose series, 48 h
# 786-0 renal = tested on: 786-0 renal
# A498 renal = tested on: A498 renal
# A549 NSCLC = tested on: A549 NSCLC
# ACHN renal = tested on: ACHN renal
# CAKI-1 renal = tested on: CAKI-1 renal
# CCRF-CEM leukemia = tested on: CCRF-CEM leukemia
# COLO 205 colon = tested on: COLO 205 colon
# DLD-1 colon = tested on: DLD-1 colon
# DMS 114 small cell lung = tested on: DMS 114 small cell lung
# DMS 273 small cell lung = tested on: DMS 273 small cell lung
# EKVX NSCLC = tested on: EKVX NSCLC
# HCC-2998 colon = tested on: HCC-2998 colon
# HCT-116 colon = tested on: HCT-116 colon
# HCT-15 colon = tested on: HCT-15 colon
# HL-60(TB) leukemia = tested on: HL-60(TB) leukemia
# HOP-18 NSCLC = tested on: HOP-18 NSCLC
# HOP-62 NSCLC = tested on: HOP-62 NSCLC
# HOP-92 NSCLC = tested on: HOP-92 NSCLC
# HT29 colon = tested on: HT29 colon
# IGROV1 ovarian = tested on: IGROV1 ovarian
# K-562 leukemia = tested on: K-562 leukemia
# KM12 colon = tested on: KM12 colon
# KM20L2 colon = tested on: KM20L2 colon
# LOX IMVI melanoma = tested on: LOX IMVI melanoma
# LXFL 529 NSCLC = tested on: LXFL 529 NSCLC
# M14 melanoma = tested on: M14 melanoma
# M19-MEL melanoma = tested on: M19-MEL melanoma
# MALME-3M melanoma = tested on: MALME-3M melanoma
# MOLT-4 leukemia = tested on: MOLT-4 leukemia
# NCI-H226 lung = tested on: NCI-H226 lung
# NCI-H23 lung = tested on: NCI-H23 lung
# NCI-H460 lung = tested on: NCI-H460 lung
# NCI-H522 lung = tested on: NCI-H522 lung
# OVCAR-3 ovarian = tested on: OVCAR-3 ovarian
# OVCAR-4 ovarian = tested on: OVCAR-4 ovarian
# OVCAR-5 ovarian = tested on: OVCAR-5 ovarian
# OVCAR-8 ovarian = tested on: OVCAR-8 ovarian
# RXF 393 renal = tested on: RXF 393 renal
# RXF-631 renal = tested on: RXF-631 renal
# SF-268 CNS = tested on: SF-268 CNS
# SF-295 CNS = tested on: SF-295 CNS
# SF-539 CNS = tested on: SF-539 CNS
# SK-MEL-2 melanoma = tested on: SK-MEL-2 melanoma
# SK-MEL-28 melanoma = tested on: SK-MEL-28 melanoma
# SK-MEL-5 melanoma = tested on: SK-MEL-5 melanoma
# SK-OV-3 ovarian = tested on: SK-OV-3 ovarian
# SN12C renal = tested on: SN12C renal
# SNB-19 CNS = tested on: SNB-19 CNS
# SNB-75 CNS = tested on: SNB-75 CNS
# SNB-78 CNS = tested on: SNB-78 CNS
# SR leukemia = tested on: SR leukemia
# SW-620 colon = tested on: SW-620 colon
# TK-10 renal = tested on: TK-10 renal
# U251 CNS = tested on: U251 CNS
# UACC-257 melanoma = tested on: UACC-257 melanoma
# UACC-62 melanoma = tested on: UACC-62 melanoma
# UO-31 renal = tested on: UO-31 renal
# RPMI-8226 leukemia = tested on: RPMI-8226 leukemia
compound,measurement,setting,value
O=c1c2ccccc2nc(/C=C(\O)c2ccccc2)n1-c1ccccc1Cl,TGI,786-0 renal,> 100 µM
same,TGI,A498 renal,> 100 µM
same,TGI,A549 NSCLC,> 100 µM
same,TGI,ACHN renal,> 100 µM
same,TGI,CAKI-1 renal,> 100 µM
same,TGI,CCRF-CEM leukemia,> 100 µM
same,TGI,COLO 205 colon,> 100 µM
same,TGI,DLD-1 colon,> 100 µM
same,TGI,DMS 114 small cell lung,> 100 µM
same,TGI,DMS 273 small cell lung,> 100 µM
same,TGI,EKVX NSCLC,> 100 µM
same,TGI,HCC-2998 colon,> 100 µM
same,TGI,HCT-116 colon,> 100 µM
same,TGI,HCT-15 colon,> 100 µM
same,TGI,HL-60(TB) leukemia,> 100 µM
same,TGI,HOP-18 NSCLC,> 100 µM
same,TGI,HOP-62 NSCLC,> 100 µM
same,TGI,HOP-92 NSCLC,> 100 µM
same,TGI,HT29 colon,> 100 µM
same,TGI,IGROV1 ovarian,> 100 µM
same,TGI,K-562 leukemia,> 100 µM
same,TGI,KM12 colon,> 100 µM
same,TGI,KM20L2 colon,> 100 µM
same,TGI,LOX IMVI melanoma,> 100 µM
same,TGI,LXFL 529 NSCLC,> 100 µM
same,TGI,M14 melanoma,> 100 µM
same,TGI,M19-MEL melanoma,> 100 µM
same,TGI,MALME-3M melanoma,> 100 µM
same,TGI,MOLT-4 leukemia,> 100 µM
same,TGI,NCI-H226 lung,> 100 µM
same,TGI,NCI-H23 lung,> 100 µM
same,TGI,NCI-H460 lung,> 100 µM
same,TGI,NCI-H522 lung,> 100 µM
same,TGI,OVCAR-3 ovarian,> 100 µM
same,TGI,OVCAR-4 ovarian,> 100 µM
same,TGI,OVCAR-5 ovarian,> 100 µM
same,TGI,OVCAR-8 ovarian,> 100 µM
same,TGI,RXF 393 renal,> 100 µM
same,TGI,RXF-631 renal,> 100 µM
same,TGI,SF-268 CNS,> 100 µM
same,TGI,SF-295 CNS,> 100 µM
same,TGI,SF-539 CNS,> 100 µM
same,TGI,SK-MEL-2 melanoma,> 100 µM
same,TGI,SK-MEL-28 melanoma,> 100 µM
same,TGI,SK-MEL-5 melanoma,> 100 µM
same,TGI,SK-OV-3 ovarian,> 100 µM
same,TGI,SN12C renal,> 100 µM
same,TGI,SNB-19 CNS,> 100 µM
same,TGI,SNB-75 CNS,> 100 µM
same,TGI,SNB-78 CNS,> 100 µM
same,TGI,SR leukemia,> 100 µM
same,TGI,SW-620 colon,> 100 µM
same,TGI,TK-10 renal,> 100 µM
same,TGI,U251 CNS,> 100 µM
same,TGI,UACC-257 melanoma,> 100 µM
same,TGI,UACC-62 melanoma,> 100 µM
same,TGI,UO-31 renal,> 100 µM
C=CCNC(=O)/C=C\C(=O)O,TGI,786-0 renal,> 100 µM
same,TGI,A498 renal,> 100 µM
same,TGI,A549 NSCLC,> 100 µM
same,TGI,ACHN renal,> 100 µM
same,TGI,CAKI-1 renal,> 100 µM
same,TGI,CCRF-CEM leukemia,> 100 µM
same,TGI,COLO 205 colon,> 100 µM
same,TGI,DLD-1 colon,> 100 µM
same,TGI,DMS 114 small cell lung,> 100 µM
same,TGI,DMS 273 small cell lung,> 100 µM
same,TGI,EKVX NSCLC,> 100 µM
same,TGI,HCC-2998 colon,> 100 µM
same,TGI,HCT-116 colon,> 100 µM
same,TGI,HCT-15 colon,> 100 µM
same,TGI,HL-60(TB) leukemia,> 100 µM
same,TGI,HOP-18 NSCLC,> 100 µM
same,TGI,HOP-62 NSCLC,> 100 µM
same,TGI,HOP-92 NSCLC,> 100 µM
same,TGI,HT29 colon,> 100 µM
same,TGI,IGROV1 ovarian,> 100 µM
same,TGI,K-562 leukemia,> 100 µM
same,TGI,KM12 colon,> 100 µM
same,TGI,KM20L2 colon,> 100 µM
same,TGI,LOX IMVI melanoma,> 100 µM
same,TGI,LXFL 529 NSCLC,> 100 µM
same,TGI,M14 melanoma,> 100 µM
same,TGI,M19-MEL melanoma,> 100 µM
same,TGI,MALME-3M melanoma,> 100 µM
same,TGI,MOLT-4 leukemia,> 100 µM
same,TGI,NCI-H226 lung,> 100 µM
same,TGI,NCI-H23 lung,> 100 µM
same,TGI,NCI-H460 lung,> 100 µM
same,TGI,NCI-H522 lung,> 100 µM
same,TGI,OVCAR-3 ovarian,> 100 µM
same,TGI,OVCAR-4 ovarian,> 100 µM
same,TGI,OVCAR-5 ovarian,> 100 µM
same,TGI,OVCAR-8 ovarian,> 100 µM
same,TGI,RXF 393 renal,> 100 µM
same,TGI,RXF-631 renal,> 100 µM
same,TGI,SF-268 CNS,> 100 µM
same,TGI,SF-295 CNS,> 100 µM
same,TGI,SF-539 CNS,> 100 µM
same,TGI,SK-MEL-2 melanoma,> 100 µM
same,TGI,SK-MEL-28 melanoma,> 100 µM
same,TGI,SK-MEL-5 melanoma,> 100 µM
same,TGI,SK-OV-3 ovarian,> 100 µM
same,TGI,SN12C renal,> 100 µM
same,TGI,SNB-19 CNS,> 100 µM
same,TGI,SNB-75 CNS,> 100 µM
same,TGI,SNB-78 CNS,> 100 µM
same,TGI,SR leukemia,> 100 µM
same,TGI,SW-620 colon,> 100 µM
same,TGI,TK-10 renal,> 100 µM
same,TGI,U251 CNS,> 100 µM
same,TGI,UACC-257 melanoma,> 100 µM
same,TGI,UACC-62 melanoma,> 100 µM
same,TGI,UO-31 renal,> 100 µM
C[N+]1(C)C/C(=C/c2ccc(F)cc2)C(=O)/C(=C\c2ccc(F)cc2)C1,TGI,786-0 renal,> 100 µM
same,TGI,A498 renal,> 100 µM
same,TGI,A549 NSCLC,> 100 µM
same,TGI,ACHN renal,> 100 µM
same,TGI,CCRF-CEM leukemia,68.5 µM
same,TGI,COLO 205 colon,> 100 µM
same,TGI,DLD-1 colon,> 100 µM
same,TGI,DMS 114 small cell lung,> 100 µM
same,TGI,DMS 273 small cell lung,86.2 µM
same,TGI,EKVX NSCLC,> 100 µM
same,TGI,HCC-2998 colon,> 100 µM
same,TGI,HCT-116 colon,> 100 µM
same,TGI,HCT-15 colon,> 100 µM
same,TGI,HL-60(TB) leukemia,50.3 µM
same,TGI,HOP-18 NSCLC,> 100 µM
same,TGI,HOP-62 NSCLC,> 100 µM
same,TGI,HOP-92 NSCLC,> 100 µM
same,TGI,IGROV1 ovarian,70.1 µM
same,TGI,K-562 leukemia,> 100 µM
same,TGI,KM12 colon,> 100 µM
same,TGI,KM20L2 colon,> 100 µM
same,TGI,LOX IMVI melanoma,> 100 µM
same,TGI,LXFL 529 NSCLC,> 100 µM
same,TGI,M14 melanoma,> 100 µM
same,TGI,M19-MEL melanoma,> 100 µM
same,TGI,MALME-3M melanoma,> 100 µM
same,TGI,MOLT-4 leukemia,45.5 µM
same,TGI,NCI-H23 lung,> 100 µM
same,TGI,NCI-H460 lung,> 100 µM
same,TGI,NCI-H522 lung,36.9 µM
same,TGI,OVCAR-3 ovarian,> 100 µM
same,TGI,OVCAR-4 ovarian,> 100 µM
same,TGI,OVCAR-5 ovarian,> 100 µM
same,TGI,OVCAR-8 ovarian,> 100 µM
same,TGI,RPMI-8226 leukemia,57.8 µM
same,TGI,RXF 393 renal,> 100 µM
same,TGI,RXF-631 renal,> 100 µM
same,TGI,SF-268 CNS,> 100 µM
same,TGI,SF-295 CNS,> 100 µM
same,TGI,SF-539 CNS,> 100 µM
same,TGI,SK-MEL-2 melanoma,> 100 µM
same,TGI,SK-MEL-28 melanoma,40.8 µM
same,TGI,SK-OV-3 ovarian,> 100 µM
same,TGI,SN12C renal,11.9 µM
same,TGI,SNB-19 CNS,> 100 µM
same,TGI,SNB-75 CNS,> 100 µM
same,TGI,SNB-78 CNS,> 100 µM
same,TGI,SW-620 colon,> 100 µM
same,TGI,TK-10 renal,> 100 µM
same,TGI,U251 CNS,42.7 µM
same,TGI,UACC-257 melanoma,> 100 µM
same,TGI,UACC-62 melanoma,33.5 µM
same,TGI,UO-31 renal,> 100 µM

# Source: PubChem BioAssay (NCI)
